Laboratory results from patent US20250345459A1, “COMPOUND OR SALT THEREOF, LIPID COMPOSITION, PHARMACEUTICAL COMPOSITION, AND DELIVERY CARRIER” (FUJIFILM Corporation, priority 2023, published 2025).

Assays:
ICR mice = test: EPO protein expression in mice after intravenous EPO mRNA lipid nanoparticles; assay type: in vivo; details: mRNA 0.1 mg/kg, plasma 6 hours after administration, neutral lipid DSPC, Lipid/Nucleic acid (wt/wt) 20, Comparative Example 1 is 1
Procedure: (§1) The compounds described in Table 1, the neutral lipid, cholesterol (product name: Cholesterol HP; NIPPON FINE CHEMICAL CO., LTD.), and 1,2-dimyristoyl-rac-glycero-3-(methylpolyoxyethylene 2000) (hereinafter, called DMG-PEG2000) (product name: SUNBRIGHT® GM-020; NOF corporation) were dissolved in ethanol at a molar ratio of ionized lipid:neutral lipid:cholesterol:DMG-PEG2000=50:10:38.5:1.5 mol % such that the total lipid concentration was 12.5 mmol/L, to obtain an oil phase.
(§2) As the neutral lipid, 1,2-distearoyl-sn-glycero-3-phosphocholine (product name: COATSOME® MC-8080; NOF corporation) (hereinafter, DSPC), or L-α-dioleoylphosphatidylethanolamine (hereinafter, DOPE) (product name: COATSOME® MC-8181; NOF corporation) was used.
(§3) EPO mRNA (product name: CleanCap EPO mRNA (5 moU); TriLink) was diluted with 50 mmol/L citrate buffer having a pH 4.0 such that the weight ratio of total lipid concentration to mRNA concentration is about 20:1 to 64:1, thereby obtaining a water phase. Then, the water phase and the oil phase were mixed together using NanoAssemblr (Precision NanoSystems) such that the volume ratio of water phase:oil phase was 3:1. The mixed solution was diluted 2-fold with any of phosphate buffered physiological saline (PBS), water, or a 20 mmol/L Tris buffer solution (pH 7.4) to obtain a dispersion liquid of mRNA lipid nanoparticles. The dispersion liquid was dialyzed with 20 mmol/L Tris buffer solution (pH 7.4) containing 8% sucrose using a dialysis cassette (Slide-A-Lyzer G2, MWCO: 10 kD, Thermo Fisher Scientific) to remove ethanol, thereby obtaining EPO mRNA-encapsulating lipid nanoparticles.
The dispersion liquid of mRNA lipid nanoparticles prepared in above <Preparation of EPO mRNA-encapsulating lipid nanoparticles> was intravenously administered to ICR mice at a mRNA dosage of 0.1 mg/kg. 6 hours after the administration, blood was collected from the caudal vena cava, thereby obtaining plasma. The human EPO […] was quantified by using the obtained blood plasma and Erythropoietin (EPO) Human Elisa Kit (Abcam.plc). The quantitative value is described as a relative amount of EPO protein in a case where Comparative Example 1 is 1.

EPO mRNA = test: mRNA encapsulation rate of mRNA lipid nanoparticles; assay type: physicochemical; details: LNP with neutral lipid DSPC; mixed solution PBS; Lipid/Nucleic acid (wt/wt) 20
Procedure: as §1, §2, §3
EPO mRNA was diluted with MilliQ water to prepare a diluted sample in 2-fold dilution series from 100 µg/mL to […], and a calibration curve solution was prepared. 50 μL of the calibration curve solution or the mRNA lipid nanoparticles was mixed with 450 μL of methanol to prepare a measurement solution.
The absorbance of each measurement solution at 260 nm and 330 nm was measured using a UV plate reader (Multiskan Go, Thermo Fisher Scientific), the absorbance at 330 nm was subtracted from the absorbance at 260 nm, and the result was defined as the absorbance of each measurement solution. The total […] nucleic acid concentration was calculated from the calibration curve using the absorbance of each sample measurement solution.
The concentration of the outer water phase nucleic acid was quantified by a standard addition method using a QuanT-iT RiboGreen RNA Assay Kit (Thermo Fisher Scientific). First, a 20× TE buffer included in the above kit was diluted with water, thereby obtaining a 1×TE buffer. TE represents Tris/EDTA (ethylenediaminetetraacetic acid). EPO mRNA was diluted with a TE buffer such that the final concentration was 0 to 400 ng/mL to prepare a nucleic acid diluted series. 10 μL of mRNA lipid nanoparticles diluted 5-fold with TE buffer and 90 µL of a nucleic acid dilution series were mixed in a 96-well plate, 100 μL of a Ribogreen reagent diluted 200-fold with TE buffer was added to each well, and then fluorescence (excitation wavelength: 485 nm, fluorescence wavelength: 535 nm) was measured using a fluorescence plate reader (Infinite 200 Pro M nano+, TECAN). From the obtained results, the outer water phase nucleic acid concentration of each measurement solution was calculated according to the standard addition method.
By using the quantification results of the total mRNA concentration and the mRNA concentration in the outer water phase that were obtained through the above steps, the mRNA encapsulation rate of the mRNA lipid nanoparticles was calculated according to the following Equation. […]

[1] = Particle size of EPO mRNA-encapsulating lipid nanoparticles; assay type: physicochemical; details: LNP with neutral lipid DSPC; mixed solution PBS; Lipid/Nucleic acid (wt/wt) 20
Procedure: as §1, §2, §3
The particle size of the mRNA-encapsulating lipid nanoparticles was measured by 5-fold diluting the dispersion liquid of lipid nanoparticle with phosphate buffered physiological saline (PBS) using a particle size measurement device NanoSaqla (Otsuka Electronics Co., Ltd.).

Nucleic acid encapsulation rate (%) (EPO mRNA) | Particle size (nm) [1] | SMILES | Relative amount of EPO protein (to Comparative Example 1) (ICR mice)
93% | 137 nm | CCCCCCCCN(CCCCC(=O)OCC(CCCCCC)CCCCCC)C(=O)OCCN(CCCCN(CC)CC)CCOC(=O)N(CCCCCCCC)CCCCC(=O)OCC(CCCCCC)CCCCCC [Example 38, bis(2-hexyloctyl) 11-(4-(diethylamino)butyl)-6,16-dioctyl-7,15-dioxo-8,14-dioxa-6,11,16-triazahenicosanedioate] | 9.99
95% | 84 nm | CCCCCCCN(CCCCCC(=O)OCC(CCCCC)CCCCC)C(=O)OCCN(CCOC(=O)N(CCCCCCC)CCCCCC(=O)OCC(CCCCC)CCCCC)CCN(CC)CC [Example 45, Bis(2-pentylheptyl) 12-(2-(diethylamino)ethyl)-7,17-diheptyl-8,16-dioxo-9,15-dioxa-7,12,17-triazatricosanedioate] | 2.19
96% | 90 nm | CCCCCCCN(CCCCCC(=O)OCC(CCCCC)CCCCC)C(=O)OCCN(CCCN(CC)CC)CCOC(=O)N(CCCCCCC)CCCCCC(=O)OCC(CCCCC)CCCCC [Example 48, Bis(2-pentylheptyl) 12-(3-(diethylamino)propyl)-7,17-diheptyl-8,16-dioxo-9,15-dioxa-7,12,17-triazatricosanedioate] | 2.26
94% | 126 nm | CCCCCC(CCCCC)COC(=O)CCCCCN(CCCCC)C(=O)OCCN(CCCN(CC)CC)CCOC(=O)N(CCCCC)CCCCCC(=O)OCC(CCCCC)CCCCC [Example 49, bis(2-pentylheptyl) 12-(3-(diethylamino)propyl)-8,16-dioxo-7,17-dipentyl-9,15-dioxa-7,12,17-triazatricosanedioate] | 1.12
96% | 82 nm | CCCCCCCCN(CCCCCC(=O)OCC(CCCCC)CCCCC)C(=O)OCCN(CCOC(=O)N(CCCCCCCC)CCCCCC(=O)OCC(CCCCC)CCCCC)CCN(CC)CC [Example 50, bis(2-pentylheptyl) 12-(2-(diethylamino)ethyl)-7,17-dioctyl-8,16-dioxo-9,15-dioxa-7,12,17-triazatricosanedioate] | 1.55
94% | 93 nm | CCCCCCCCN(CCCCCC(=O)OCC(CCCCC)CCCCC)C(=O)OCCN(CCCN(CC)CC)CCOC(=O)N(CCCCCCCC)CCCCCC(=O)OCC(CCCCC)CCCCC [Example 51, Bis(2-pentylheptyl) 12-(3-(diethylamino)propyl)-7,17-dioctyl-8,16-dioxo-9,15-dioxa-7,12,17-triazatricosanedioate] | 2.88

The next lines start with the compound.

SMILES | Nucleic acid encapsulation rate (%) (EPO mRNA) | Particle size (nm) [1] | Relative amount of EPO protein (to Comparative Example 1) (ICR mice)
CCCCCCCCN(CCCCC(=O)OCCCCCCC)C(=O)OCCN(CCOC(=O)N(CCCCCCCC)CCCCC(=O)OCC(CCCCCC)CCCCCC)CCN(CC)CC [Example 40, 1-Heptyl 21-(2-hexyloctyl) 11-(2-(diethylamino)ethyl)-6,16-dioctyl-7,15-dioxo-8,14-dioxa-6,11,16-triazahenicosanedioate] | 74% | 162 nm | 8.10
CCCCCCCCOC(=O)CCCCN(CCCCCCCC)C(=O)OCCN(CCOC(=O)N(CCCCCCCC)CCCCC(=O)OCC(CCCCCC)CCCCCC)CCN(CC)CC [Example 42, 1-(2-Hexyloctyl) 21-octyl 11-(2-(diethylamino)ethyl)-6,16-dioctyl-7,15-dioxo-8,14-dioxa-6,11,16-triazahenicosanedioate] | 82% | 154 nm | 6.39
CCCCCC(CCCCC)COC(=O)CCCCCN(CCCCC)C(=O)OCCN(CCOC(=O)N(CCCCC)CCCCCC(=O)OCC(CCCCC)CCCCC)CCN(CC)CC [Example 46, Bis(2-pentylheptyl) 12-(2-(diethylamino)ethyl)-8,16-dioxo-7,17-dipentyl-9,15-dioxa-7,12,17-triazatricosanedioate] | 93% | 104 nm | 1.54
CCCCCCC(CCCCCC)COC(=O)CCCCCN(CCCC)C(=O)OCCN(CCOC(=O)N(CCCC)CCCCCC(=O)OCC(CCCCCC)CCCCCC)CCN(CC)CC [Example 47, Bis(2-hexyloctyl) 7,17-dibutyl-12-(2-(diethylamino)ethyl)-8,16-dioxo-9,15-dioxa-7,12,17-triazatricosanedioate] | 91% | 114 nm | 1.46
